Read-outs that look alike come from different tables or passages of the source.
Legend:
Amaranthus retroflexus [1] = assay: Pre-emergence herbicidal action, greenhouse, 320 g/ha; format: in vivo; conditions: application rate 320 g/ha, scored visually after about 3 weeks vs untreated controls
Description: (§1) Seeds of monocotyledonous and dicotyledonous weed plants and crop plants were placed in plastic or organic planting pots and covered with soil. The compounds of the invention, formulated in the form of wettable powders (WP) or as emulsion concentrates (EC), were then applied to the surface of the covering soil as aqueous suspension or emulsion with addition of 0.5% additive at a water application rate equivalent to […]. After the treatment, the pots were placed in a greenhouse and kept under good growth conditions for the test plants. After about 3 weeks, the effect of the preparations is scored visually in comparison with untreated controls as percentages. For example, 100% activity=the plants have died, 0% activity=like control plants. Tables B1 to B14 below show the effects of selected compounds of the general formula (I) according to Tables I.1 to I.150 on various harmful plants and at an application rate corresponding to 320 g/ha, which were obtained by the experimental procedure mentioned above.

Alopecurus myosuroides = assay: as above; format: in vivo; conditions: application rate 320 g/ha, scored visually after about 3 weeks vs untreated controls
Description: as §1

Matricaria inodora [2] = assay: as above; format: in vivo; conditions: application rate 320 g/ha, scored visually after about 3 weeks vs untreated controls
Description: as §1

Veronica persica = assay: as above; format: in vivo; conditions: application rate 320 g/ha, Table B13
Description: as §1

Digitaria sanguinalis = assay: as above; format: in vivo; conditions: application rate 320 g/ha, Table B9
Description: as §1

Polygonum convolvulus [3] = assay: as above; format: in vivo; conditions: application rate 320 g/ha, scored visually after about 3 weeks vs untreated controls
Description: as §1

Pharbitis purpurea [4] = assay: as above; format: in vivo; conditions: application rate 320 g/ha, Table B12
Description: as §1

Stellaria media [5] = assay: as above; format: in vivo; conditions: application rate 320 g/ha, scored visually after about 3 weeks vs untreated controls
Description: as §1

Viola tricolor [6] = assay: as above; format: in vivo; conditions: application rate 320 g/ha, Table B8
Description: as §1

photosystem II (PS II) = target: T1, photosystem II (PS II) (Spinacia oleracea, UniProt P69560); assay: Measurement of PS II activity in thylakoid membranes (DCPIP reduction); format: biochemical, spinach; conditions: read-out: Effect
T1 construct: the chloroplasts were osmotically ruptured and the thylakoid membranes were then obtained by centrifugation; from tissue; host or cells: fresh spinach leaves; thylakoid membrane preparation from isolated chloroplasts
Method: Cooled fresh spinach leaves were comminuted and homogenized in 50 mM phosphate buffer, pH 6.8. 10 mM KCl, 0.34 M sucrose (sucrose buffer) (blender, 1 g of plant material/ml). The homogenate was subsequently filtered through 4 layers of Miracloth and the chloroplasts were isolated by centrifugation, i.e. 10 min of centrifugation at 4400×g (4° C.). The sediment was suspended in 25 ml of sucrose buffer and re-centrifuged for 10 min at 4400×g (4° C.). The sediment was then suspended in 40 ml of 50 mM phosphate buffer, pH 6.8, 10 mM KCl, without sucrose. In this step, the chloroplasts were osmotically ruptured and the thylakoid membranes were then obtained by centrifugation (10 min, 4400×g, 4° C.). The membrane sediment was finally suspended in about 20 ml of 50 mM phosphate buffer, pH 6.8, 10 mM KCl. Following protein determination and activity determination, the membrane suspension was divided into aliquots and frozen in liquid nitrogen. The aliquots were stored at −80° C. Under these conditions, the photosystem II preparation was storage stable for at least three months. The activity determination of photosystem II (PS II) was then carried out using the following test principle: The electron transfer from PS II to an artificial electron acceptor, 2,6-dichlorophenolindophenol (DCPIP), was measured with exposure to light. The concentration of the blue oxidized form of DCPIP was determined spectrophotometrically at wavelength λ=595 nm. […] The activity determination is carried out in microtiter plates (96 cavities) in a reaction volume of 200 μl. Here, 155 μl of dilute membrane suspension were initially charged in 50 mM of phosphate buffer, pH 6.8, 10 mM KCl. Depending on the activity of the PS II preparation, the dilution was adjusted such that the measurement of the decrease in absorption (λ=595 nm) was linear for at least 10 min. In each case 5 μl solutions of the test compounds of a concentration of 100 μM in DMSO were added to the enzyme suspension; controls contained 5 μl of DMSO; the final concentration of DMSO in the reaction batch was thus 2.5% (v/v); this concentration had no adverse effect on the enzymatic activity. On each microtiter plate, a known PS II inhibitor, for example metribuzin, was used as standard, which allowed the quality of the PS II test to be assessed. The reaction was started by addition of 40 μl DCPIP solution (600 μM in distilled water); the final concentration of DCPIP was 120 μM. Measurement of absorption is carried out over a period of 10 min at 22° C. and with exposure to light. Using metribuzin as comparative substance, the results for the efficacy of the compounds of the general formula (I) at 100 μM are stated in the table below using the following classification: ++++(inhibition≥90%), +++(90%>inhibition≥70%), ++(70%>inhibition≥50%), +(50%>inhibition≥30%).

Echinochloa crus-galli = assay: Herbicidal pre-emergence action (Part 2), 1280 g/ha; format: in vivo; conditions: application rate 1280 g/ha, scored visually after about 3 weeks, Table D1
Description: (§2) Seeds of mono- and dicotyledonous weed plants were placed in plastic pots in sandy loam soil (doubly sown with in each case one species of mono- or dicotyledonous weed plants per pot) and covered with soil. The compounds of the invention, formulated in the form of wettable powders (WP) or as emulsion concentrates (EC), were then applied onto the surface of the covering soil as aqueous suspension or emulsion with addition of 0.5% additive at a water application rate of 600 liters per hectare (converted). After the treatment, the pots were placed in a greenhouse and kept under good growth conditions for the test plants. After about 3 weeks, the effect of the preparations was scored visually in comparison with untreated controls as percentages. For example, 100% activity=the plants have died, 0% activity=like control plants. Tables D1 to D8 below show the effects of selected compounds of the general formula (I) according to Tables 1.1 to 1.150 on various harmful plants and at an application rate corresponding to 1280 g/ha, which were obtained by the experimental procedure mentioned above.

Amaranthus retroflexus [7] = assay: Herbicidal post-emergence action (Part 2), 1280 g/ha; format: in vivo; conditions: application rate 1280 g/ha, rated visually after about 3 weeks, Table C5
Method: (§3) Seeds of mono- and dicotyledonous weed plants were placed in plastic pots in sandy loam soil (doubly sown with in each case one species of mono- or dicotyledonous weed plants per pot), covered with soil and cultivated in a greenhouse under controlled growth conditions. 2 to 3 weeks after sowing, the test plants were treated at the one-leaf stage. The compounds of the invention, formulated in the form of wettable powders (WP) or as emulsion concentrates (EC), were applied onto the green parts of the plants as aqueous suspension or emulsion with addition of 0.5% additive at a water application rate of 600 liters per hectare (converted). After the test plants had been kept in the greenhouse under optimum growth conditions for about 3 weeks, the activity of the preparations was rated visually in comparison to untreated controls. For example, 100% activity=the plants have died, 0% activity=like control plants. Tables C1 to C7 below show the effects of selected compounds of the general formula (I) according to Tables 1.1 to 1.150 on various harmful plants and at an application rate corresponding to 1280 g/ha, which were obtained by the experimental procedure mentioned above.

Poa annua [8] = assay: as above; format: in vivo; conditions: application rate 1280 g/ha, rated visually after about 3 weeks, Table C2
Method: as §3

Poa annua [9] = assay: Herbicidal pre-emergence action (Part 2), 1280 g/ha; format: in vivo; conditions: application rate 1280 g/ha, scored visually after about 3 weeks, Table D3
Description: as §2

Matricaria inodora [10] = assay: as above; format: in vivo; conditions: application rate 1280 g/ha, scored visually after about 3 weeks, Table D7
Description: as §2

Abutilon theophrasti [11] = assay: as above; format: in vivo; conditions: application rate 1280 g/ha, scored visually after about 3 weeks, Table D5
Description: as §2

Amaranthus retroflexus [12] = assay: Post-emergence herbicidal action, greenhouse, 320 g/ha; format: in vivo; conditions: application rate 320 g/ha, rated visually after about 3 weeks vs untreated controls
Method: (§4) Seeds of monocotyledonous and dicotyledonous weeds and crop plants were placed in sandy loam in plastic or wood-fiber pots, covered with soil and cultivated in a greenhouse under controlled growth conditions. 2 to 3 weeks after sowing, the test plants were treated at the one-leaf stage. The compounds of the invention, formulated in the form of wettable powders (WP) or as emulsion concentrates (EC), were then sprayed onto the green parts of the plants as aqueous suspension or emulsion with addition of 0.5% additive at a water application rate of […] (converted). After the test plants had been kept in the greenhouse under optimum growth conditions for about 3 weeks, the activity of the preparations was rated visually in comparison to untreated controls. For example, 100% activity=the plants have died, 0% activity=like control plants. Tables A1 to A14 below show the effects of selected compounds of the general formula (I) according to Tables 1.1 to 1.150 on various harmful plants and at an application rate corresponding to 320 g/ha, which were obtained by the experimental procedure mentioned above.

Matricaria inodora [13] = assay: as above; format: in vivo; conditions: application rate 320 g/ha, rated visually after about 3 weeks vs untreated controls
Method: as §4

Setaria viridis [14] = assay: as above; format: in vivo; conditions: application rate 320 g/ha, rated visually after about 3 weeks vs untreated controls
Method: as §4

Stellaria media [15] = assay: as above; format: in vivo; conditions: application rate 320 g/ha, rated visually after about 3 weeks vs untreated controls
Method: as §4

Viola tricolor [16] = assay: as above; format: in vivo; conditions: application rate 320 g/ha, rated visually after about 3 weeks vs untreated controls
Method: as §4

Abutilon theophrasti [17] = assay: as above; format: in vivo; conditions: application rate 320 g/ha, rated visually after about 3 weeks vs untreated controls
Method: as §4

Polygonum convolvulus [18] = assay: as above; format: in vivo; conditions: application rate 320 g/ha, rated visually after about 3 weeks vs untreated controls
Method: as §4

Pharbitis purpurea [19] = assay: as above; format: in vivo; conditions: application rate 320 g/ha, rated visually after about 3 weeks vs untreated controls
Method: as §4

Avena fatua = assay: Pre-emergence herbicidal action, greenhouse, 320 g/ha; format: in vivo; conditions: application rate 320 g/ha, scored visually after about 3 weeks vs untreated controls
Description: as §1

Hordeum murinum = assay: as above; format: in vivo; conditions: application rate 320 g/ha, Table B14
Description: as §1

Setaria viridis [20] = assay: as above; format: in vivo; conditions: application rate 320 g/ha, Table B11
Description: as §1

Abutilon theophrasti [21] = assay: as above; format: in vivo; conditions: application rate 320 g/ha, scored visually after about 3 weeks vs untreated controls
Description: as §1

[22] = PS II activity in spinach thylakoid membranes, Table E1

inhibition at 100 µM (photosystem II (PS II); [22]) | Structure (SMILES) | Amaranthus retroflexus (efficacy in %) (Amaranthus retroflexus [1]) | Alopecurus myosuroides (efficacy in %) (Alopecurus myosuroides) | Matricaria inodora (efficacy in %) (Matricaria inodora [2]) | Digitaria sanguinalis (efficacy in %) (Digitaria sanguinalis) | Polygonum convolvulus (efficacy in %) (Polygonum convolvulus [3]) | Pharbitis purpurea (efficacy in %) (Pharbitis purpurea [4]) | Stellaria media (efficacy in %) (Stellaria media [5]) | Viola tricolor (efficacy in %) (Viola tricolor [6]) | Amaranthus retroflexus (efficacy in %) (Amaranthus retroflexus [12]) | Matricaria inodora (efficacy in %) (Matricaria inodora [13]) | Setaria viridis (efficacy in %) (Setaria viridis [14]) | Stellaria media (efficacy in %) (Stellaria media [15]) | Abutilon theophrasti (efficacy in %) (Abutilon theophrasti [17]) | also measured
50 to 70% | CN1CCC(O)N(c2cc(C(F)(F)F)ccn2)C1=O (centres unmarked) [I.1-449, 4-Hydroxy-1-methyl-3-[4-(trifluoromethyl)pyridin-2-yl]tetrahydropyrimidin-2(1H)-one] | 100% | 100% | 80% | 100% | 100% | 100% | 100% | 100% | – | – | – | – | – | Veronica persica (efficacy in %) (Veronica persica): 80%
– | CSc1nnc(C(C)(C)C)c(=O)n1N [Metribuzin, metribuzin, reference compound] | – | – | – | – | – | – | – | – | – | – | – | – | – | inhibition at 100 µM (photosystem II (PS II)): > 90%
> 90% | CN1CCC(O)N(c2cc(C(C)(C)C)no2)C1=O (centres unmarked) [I.1-290, 3-(3-tert-Butyl-1,2-oxazol-5-yl)-4-hydroxy-1-methyltetrahydropyrimidin-2(1H)-one] | – | – | – | – | – | – | – | – | – | – | – | – | – | Echinochloa crus-galli (Echinochloa crus-galli): 90%
70 to 90% | CN1CC(C)(C)C(O)N(c2cc(C(C)(C)C)on2)C1=O (centres unmarked) [I.61-162, 1-(5-tert-Butyl-1,2-oxazol-3-yl)-6-hydroxy-3,5,5-trimethyltetrahydropyrimidin-2(1H)-one] | – | – | – | – | – | – | – | – | – | – | – | – | – | Amaranthus retroflexus (Amaranthus retroflexus [7]): 100%; Poa Annua (Poa annua [8]): 90%; Poa Annua (Poa annua [9]): 100%; Matricaria inodora (Matricaria inodora [10]): 90%; Abutilon theophrasti (Abutilon theophrasti [11]): 100%
– | CC(=O)OC1CC(C)N(C)C(=O)N1c1cc(C(C)(C)C)on1 (single isomer, unassigned) [I.42-162_a] | – | – | – | – | – | – | – | – | 100% | 100% | 80% | 100% | 100% | Viola tricolor (efficacy in %) (Viola tricolor [16]): 100%
– | CC(=O)OC1CC2CCCN2C(=O)N1c1cc(C(C)(C)C)on1 (centres unmarked) [I.122-162] | 90% | 90% | 100% | 100% | 100% | 100% | 100% | 100% | 90% | 90% | 80% | 80% | 100% | Polygonum convolvulus (efficacy in %) (Polygonum convolvulus [18]): 90%; Pharbitis purpurea (efficacy in %) (Pharbitis purpurea [19]): 80%; Avena fatua (efficacy in %) (Avena fatua): 80%; Hordeum murinum (efficacy in %) (Hordeum murinum): 100%; Setaria viridis (efficacy in %) (Setaria viridis [20]): 100%; Abutilon theophrasti (efficacy in %) (Abutilon theophrasti [21]): 100%
